# Test results from patent US9987243B2, “Use of trans-palmitoleate in identifying and treating metabolic disease” (Trustees of Tufts College, priority 2010, dated 2018).
# Marks after values point to notes of the source that are not given here.
# What was measured:
# [1] = tested on: 2,985 participants free of prevalent diabetes at baseline; experiment: Cardiovascular Health Study: plasma phospholipid fatty acids and incident diabetes mellitus (Cox proportional-hazards); type: in vivo, human; conditions: for RR of diabetes per SD: per each higher SD of the plasma phospholipid fatty acid, multivariable-adjusted (covariates as in Table 4)
# Method: Plasma phospholipid fatty acids, anthropometry, blood lipids, inflammatory markers, and glucose-insulin levels were measured at baseline using standardized methods. Independent determinants of trans-palmitoleate and relationships of trans-palmitoleate with metabolic risk factors were investigated using multivariable-adjusted linear regression.
# Multivariable model adjusted for age (years), gender (male/female), race (white/nonwhite), education (<high school, high school, some college, college graduate), enrollment site (four sites), smoking (never, former, current), body mass index (kg/m^2), waist circumference (cm), coronary heart disease (yes/no), physical activity (kcal/wk), alcohol use (six categories), and consumption of carbohydrate (% energy), protein (% energy), red meat (servings/week), whole-fat dairy foods (6 categories), low-fat dairy foods (five categories), and total energy (kcal/d).
# Participants were followed by means of annual examinations for 10 years with interim and subsequent 6-month telephone contacts. Ives et al., 5 Ann. Epidemiol. […] At each visit, detailed medication information was obtained using medication inventories. At baseline, study interviewers visited participants in their homes and asked to see all prescription medications they had taken in the previous 2 weeks. At follow-up exams, participants brought to clinic all prescription medications taken in the previous 2 weeks. Drug names, doses, and frequencies were coded according to prescription medication Medispan files.
# Relationships between phospholipid fatty acids were evaluated using Spearman correlation. Trans-palmitoleate levels were evaluated in sex-specific quintiles as indicator variables and continuously per SD difference. Independent demographic and lifestyle determinants of trans-palmitoleate were evaluated using multivariable-adjusted linear regression with trans-palmitoleate as the dependent variable. Multivariable-adjusted relationships of trans-palmitoleate with metabolic risk factors (transformed for normality as appropriate) were evaluated using linear regression with trans-palmitoleate as the independent variable. Quintiles were evaluated as ordinal variables to assess trend, to assess effect modification using the Wald test for a multiplicative interaction term, and to assess differences in baseline characteristics by means of linear or logistic regression. […] To minimize potential confounding, covariates were selected based on biologic interest, being well-established risk factors for metabolic risk, or associations with exposures/outcomes in the present cohort. […] Analyses were performed using Stata10.1 (College Station, Tex.), two-tailed alpha=0.05.
# [2] = tested on: 3,736 U.S. men and women in the Cardiovascular Health Study; experiment: Cardiovascular Health Study: multivariable-adjusted relationships of plasma phospholipid trans-palmitoleate with metabolic risk factors; type: in vivo, human; conditions: for BMI / Blood Pressure: Diastolic / Blood Pressure: Systolic / Fasting insulin / HOMA-IR / Total/HDL-C ratio / Waist circumference: adjusted mean
# Method: The present inventors investigated relationships of circulating trans-palmitoleate levels with metabolic risk and incident diabetes mellitus among 3,736 U.S. men and women in the prospective Cardiovascular Health Study. Plasma phospholipid fatty acids, anthropometry, blood lipids, inflammatory markers, and glucose-insulin levels were measured at baseline using standardized methods. Independent determinants of trans-palmitoleate and relationships of trans-palmitoleate with metabolic risk factors were investigated using multivariable-adjusted linear regression. Relationships with incident diabetes (304 incident cases) were investigated using Cox proportional-hazards. Validation for metabolic risk factors was performed in a second independent cohort of 327 generally healthy women.
# CHS design and recruitment have been described. Fried et al., 1 Ann. Epidemiol. 263 (1991). Briefly, 5,201 ambulatory, non-institutionalized adults age ≥65 were selected randomly and then enrolled in 1989 to 1990 from Medicare eligibility lists in 4 U.S. communities (Forsyth County, NC; Sacramento County, CA; Washington County, MD.; Allegheny County, PA); an additional 687 black participants were recruited similarly and enrolled in 1992. Among all eligible adults contacted, 57% agreed to enroll. Baseline in-clinic evaluations included standardized physical examination, diagnostic testing, laboratory evaluation, and questionnaires on health status, medical history, and cardiovascular and lifestyle risk factors. Each center's institutional review committee approved the study; all participants provided informed written consent.
# Plasma phospholipid fatty acids were measured in 3,736 individuals using 1992 blood samples, considered to be the baseline for all present analyses. This included 3,238 participants randomly selected from individuals with available blood samples in 1992 and an additional 498 participants from a prior case-control study of myocardial infarction. All analyses accounted for this within-cohort sampling using inverse-probability-of-sampling weights. Plasma phospholipids were selected as an excellent marker of longer-term (4-8 week) circulating fatty acids, with similar responses as levels in erythrocyte membranes. Blood was drawn after a 12-hr fast, stored (−70° C.), and shipped on dry ice for long-term centralized storage (−80° C.). Under these conditions plasma phospholipid fatty acids are stable long-term, and in prior studies we observed no degradation, lipolysis, or oxidation after 10 years storage. Measurements were performed at the Fred Hutchinson Cancer Research Center, providing quantitative measurement of 45 fatty acids as percent of total fatty acids. Total lipids were extracted from plasma using methods of Folch, and phospholipids separated from neutral lipids by one-dimensional TLC. Fatty-acid-methyl-ester (FAME) samples were prepared by direct transesterification using methods of Lepage and separated using gas chromatography (Agilent5890 gas-chromatograph-FID-detector; Supelco fused-silica 100 m capillary column SP-2560; initial 160° C. 16 min, ramp 3.0° C./min to 240° C., hold 15 min). Identification, precision, and accuracy were continuously evaluated using model mixtures of known FAMEs and established in-house controls, with identification confirmed by GC-MS at USDA (Peoria, Ill.) or for trans-fats by silver-ion TLC. CVs were 2.5% for trans-palmitoleate and <3% for most fatty acids.
# At study-clinic examinations, risk factors were measured by trained personnel. Fried et al., 1991. Anthropometric measures including weight, height, and waist circumference were collected using standard procedures and used to calculate body mass index (BMI). Fasting total cholesterol, HDL-C, and triglycerides were measured according to CDC methods. LDL-C was calculated according to Friedewald equation, excluding individuals with hypertriglyceridemia. […]
# [3] = tested on: 327 generally healthy women in the Nurses' Health Study; experiment: Nurses' Health Study validation cohort: erythrocyte and plasma trans-palmitoleate versus metabolic risk factors; type: in vivo, human; conditions: multivariable-adjusted level across quartiles
# Method: For independent validation, we evaluated the association of trans-palmitoleate measured in erythrocyte membranes and plasma (Sun et al., 88 Am. J. Clin. Nutr, 216 (2008)), with metabolic risk factors in a cohort of 327 generally healthy women, age=60.4±6.1 years, in the Nurses' Health Study (NHS). Relationships were evaluated for HDL-C, total:HDL-C, interleukin-6, CRP, and hemoglobinAlc. Because many samples were nonfasting, triglycerides and LDL-C were not evaluated; the number of subjects was too small to evaluate incident diabetes. Multivariable models were adjusted for age, smoking, physical activity, alcohol intake, family history, hypertension, hormone use, fasting status, and dietary carbohydrate, protein, polyunsaturated fats, saturated fat, dietary fiber, and total energy. We also evaluated correlations of trans-palmitoleate levels in plasma vs. erythrocytes in NHS (Spearman correlation[r]=0.74); and in phospholipids vs. triglycerides in CHS (n=104; r=0.54).
# C2C12 myotubes = experiment: Glucose uptake assay in differentiated C2C12 myotubes; type: cell-based; conditions: 0.25 mM for 6 hr, values only in FIG. 1
# Method: FIG. 1 is a bar graph showing data from differentiated C2C12 myotubes that were incubated with control medium, or medium with 0.25 mM palmitate (C16) or trans-16:1n7-palmitoleate for 6 hours; glucose uptake was assayed as described herein.
# C2C12 myoblasts were maintained in 20% fetal bovine serum. To differentiate the myoblasts, cells were plated in 12-well plates coated with 0.2% gelatin and medium changed to 2% horse serum upon confluence. Five days post-differentiation, C2C12 myotubes were incubated in serum-free medium with 0.5% bovine serum albumin (Sigma) and indicated fatty acids at a final concentration of 0.25 mM for 6 hr. Glucose uptake assay was performed as described previously, with modifications. Somwar et al., 276 J. Biol. Chem. 46079 (2001). Briefly, cells were washed twice with 500 μl warm Krebs-Ringer-Hepes (KRH) buffer and 1 ml of KRH buffer was added into each wells. ^3H 2-D-Glucose (0.5 μCi/well) was added and cells were kept in incubator for 10 min. Medium was then removed and cells washed twice with ice-cold KRH buffer. Cells were plated on ice and lysed in 500 μl 0.1% SDS. Aliquots of 400 μl cell lysate were used for scintillation counting and protein assay quantification assay was performed on the rest of cell lysate.
# [4] = tested on: OB/OB, wild-type, and high-fat diet mice; experiment: Tolerability of oral gavage administration in mice; type: in vivo; conditions: 200 mg/kg/day to 2 g/kg/day for 5 weeks in PEG 300
# Method: Trans-palmitoleate was obtained in pure, powdered form from Nu-Check Prep, Inc. (Elysian, Minn.) and dissolved in a polyethylene glycol vehicle (PEG 300). Mice were administered, by gavage, trans-palmitoleate in doses ranging from 200 mg/kg/day to 2 g/kg/day for 5 weeks. […] In OB/OB mice, after 2 weeks of treatment, plasma lipid analysis was determined from samples taken after 6 hr of fasting, 30 hr after last trans-palmiloleate administration. Additionally, research diets comprising mouse chow at 2% trans-palmitoleate % total food weight can be formulated.
# [5] = across quintiles, further adjusted for adiposity
# [6] = across quintiles, multivariable-adjusted
# [7] = quintile I (median 0.13% of total fatty acids)
# [8] = quintile II (median 0.16% of total fatty acids)
# [9] = quintile III (median 0.18% of total fatty acids)
# [10] = quintile IV (median 0.21% of total fatty acids)
# [11] = quintile V (median 0.25% of total fatty acids)
# [12] = erythrocyte trans-palmitoleate, first value
# [13] = erythrocyte trans-palmitoleate, second value
# [14] = plasma trans-palmitoleate, first value
# [15] = plasma trans-palmitoleate, second value
smiles,measurement,setting,value
"CCCCCC/C=C/CCCCCCCCCC(=O)O [Vaccenic acid, vaccenic acid, reference compound]",RR of diabetes per SD,[1],0.89
"CCCCCC/C=C/CCCCCCCC(=O)O [trans-palmitoleate, trans-C16:1n7-palmitoleic acid]",association with fibrinogen,"[2]; P=0.006, limited to lower levels in the lowest quintile only",higher fibrinogen
same,difference in CRP across quintiles,[2]; [5],−13.8%
same,difference in HDL-C across quintiles,[2]; [5],+1.9%
same,difference in fasting insulin across quintiles,[2]; [5],−13.3%
same,difference in insulin resistance assessed by HOMA-IR across quintiles,[2]; [5],−16.7%
same,difference in total:HDL-C ratio across quintiles,[2]; [5],−4.7%
same,difference in triglycerides across quintiles,[2]; [5],−19.0%
same,difference in BMI across quintiles,[2]; [6],−1.8%
same,difference in waist circumference across quintiles,[2]; [6],−1.8%
same,"association with LDL-C, fasting glucose, or BP",[2]; multivariable-adjusted,not associated
same,BMI,[2]; [7],26.7 kg/m^2
same,Blood Pressure: Diastolic,[2]; [7],71 mmHg
same,Blood Pressure: Systolic,[2]; [7],137 mmHg
same,Fasting insulin,[2]; [7],11.3 mU/l
same,HOMA-IR,[2]; [7],3.0 units
same,Total/HDL-C ratio,[2]; [7],4.3
same,Waist circumference,[2]; [7],97.7 cm
same,BMI,[2]; [8],27.0 kg/m^2
same,Blood Pressure: Diastolic,[2]; [8],71 mmHg
same,Blood Pressure: Systolic,[2]; [8],136 mmHg
same,Fasting insulin,[2]; [8],11.0 mU/l
same,HOMA-IR,[2]; [8],2.9 units
same,Total/HDL-C ratio,[2]; [8],4.3
same,Waist circumference,[2]; [8],98.4 cm
same,BMI,[2]; [9],26.8 kg/m^2
same,Blood Pressure: Diastolic,[2]; [9],70 mmHg
same,Blood Pressure: Systolic,[2]; [9],136 mmHg
same,Fasting insulin,[2]; [9],10.7 mU/l
same,HOMA-IR,[2]; [9],2.8* units
same,Total/HDL-C ratio,[2]; [9],4.2
same,Waist circumference,[2]; [9],97.2 cm
same,BMI,[2]; [10],26.9 kg/m^2
same,Blood Pressure: Diastolic,[2]; [10],71 mmHg
same,Blood Pressure: Systolic,[2]; [10],136 mmHg
same,Fasting insulin,[2]; [10],10.2† mU/l
same,HOMA-IR,[2]; [10],2.7† units
same,Total/HDL-C ratio,[2]; [10],4.1†
same,Waist circumference,[2]; [10],97.4 cm
same,BMI,[2]; [11],26.2 kg/m^2
same,Blood Pressure: Diastolic,[2]; [11],71 mmHg
same,Blood Pressure: Systolic,[2]; [11],136 mmHg
same,Fasting insulin,[2]; [11],9.8‡ mU/l
same,HOMA-IR,[2]; [11],2.5‡ units
same,Total/HDL-C ratio,[2]; [11],4.1†
same,Waist circumference,[2]; [11],96.0* cm
same,extreme-quintile RR of new-onset diabetes,[1]; additional adjustment for levels of both 15:0 and 17:0,0.39
same,extreme-quintile RR of incident diabetes,[1]; additional adjustment for vaccenic acid (trans-18:1n-7),0.43
same,extreme-quintile RR of incident diabetes,[1]; men,0.29
same,RR of diabetes per SD,[1],0.72
same,multivariable-adjusted RR of diabetes lower per each higher SD,[1]; per each higher SD of trans-palmitoleate,28%
same,No. of incident cases of diabetes mellitus,"[1]; quintile I, 5,595 person-years of follow-up",93
same,"Hazard ratio (RR) of incident diabetes, age- and sex-adjusted",[1]; quintile II vs quintile I,0.84
same,"Hazard ratio (RR) of incident diabetes, multivariate-adjusted",[1]; quintile II vs quintile I,0.79
same,No. of incident cases of diabetes mellitus,"[1]; quintile II, 5,435 person-years of follow-up",68
same,"Hazard ratio (RR) of incident diabetes, age- and sex-adjusted",[1]; quintile III vs quintile I,0.88
same,"Hazard ratio (RR) of incident diabetes, multivariate-adjusted",[1]; quintile III vs quintile I,0.89
same,No. of incident cases of diabetes mellitus,"[1]; quintile III, 5,556 person-years of follow-up",59
same,"Hazard ratio (RR) of incident diabetes, age- and sex-adjusted",[1]; quintile IV vs quintile I,0.44
same,"Hazard ratio (RR) of incident diabetes, multivariate-adjusted",[1]; quintile IV vs quintile I,0.41
same,No. of incident cases of diabetes mellitus,"[1]; quintile IV, 5,811 person-years of follow-up",46
same,"Hazard ratio (RR) of incident diabetes, age- and sex-adjusted",[1]; quintile V vs quintile I,0.36
same,"Hazard ratio (RR) of incident diabetes, multivariate-adjusted",[1]; quintile V vs quintile I,0.38
same,No. of incident cases of diabetes mellitus,"[1]; quintile V, 5,469 person-years of follow-up",38
same,extreme-quintile RR of incident diabetes,[1]; women,0.41
same,CRP,[3]; [12],3.3 mg/L
same,hemoglobinAlc,[3]; [12],5.92
same,interleukin-6 (IL-6),[3]; [12],2.3 pg/mL
same,total:HDL-C,[3]; [12],4.21
same,CRP,[3]; [13],2.1 mg/L
same,hemoglobinAlc,[3]; [13],5.66
same,interleukin-6 (IL-6),[3]; [13],1.8 pg/mL
same,total:HDL-C,[3]; [13],3.87
same,HDL-C,[3]; [14],56.5 mg/dL
same,hemoglobinAlc,[3]; [14],5.88%
same,total:HDL-C,[3]; [14],4.28
same,HDL-C,[3]; [15],61.7 mg/dL
same,hemoglobinAlc,[3]; [15],5.64%
same,total:HDL-C,[3]; [15],3.63
same,glucose uptake,C2C12 myotubes,Positive Glucose Uptake
same,tolerability,[4],"well-tolerated, with no ill effects observed"
